# Laboratory results taken from ChEMBL document CHEMBL1201862, “PubChem BioAssay data set” (2004).
# Activity calls are given as the source filed them.
# Tests used:
# [1] = biological target: Potassium voltage-gated channel subfamily KQT member 2 (Rattus norvegicus, UniProt O88943); test: blockers of KCNQ2 channel current – cell-based, automated electrophysiology, set II, rat KCNQ2, dose response (AID 588637); format: functional
# [2] = inhibition of ARNT PAS-B/TACC3 complex formation – biochemical, AlphaScreen, cherry-picked samples, confirmation (AID 651703); format: functional, Homo sapiens;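 further: His-tagged ARNT PAS-B domain paired with GST-TACC3 E629A dimer coactivator fragment; potency of inhibitors that break up the complex and lower AlphaScreen signal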
# [3] = biological target: Hepatocyte nuclear factor 4-alpha (Homo sapiens, UniProt P41235); format: functional, cell-based;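 further: biochemical luminescence-based dose-response counterscreen measuring inhibition of HNF4 dimerization, run alongside a screen for blockers of ABHD5–perilipin-5 interaction; split luciferase complementation of HNF4 fusion proteins in cell lysate measuring dimerization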
# [4] = biological target: UDP-galactopyranose mutase (Mycobacterium tuberculosis, UniProt P9WIQ1); test: Inhibitors of Mycobacterium tuberculosis UDP-galactopyranose mutase (UGM) enzyme Measured in Biochemical System Using Plate Reader - 2105-02_Inhibitor_Dose_CherryPick_Activity. [Related pubchem assays (depositor defined):AID504439]
# UDP-galactopyranose mutase, sequence (P9WIQ1 whole entry): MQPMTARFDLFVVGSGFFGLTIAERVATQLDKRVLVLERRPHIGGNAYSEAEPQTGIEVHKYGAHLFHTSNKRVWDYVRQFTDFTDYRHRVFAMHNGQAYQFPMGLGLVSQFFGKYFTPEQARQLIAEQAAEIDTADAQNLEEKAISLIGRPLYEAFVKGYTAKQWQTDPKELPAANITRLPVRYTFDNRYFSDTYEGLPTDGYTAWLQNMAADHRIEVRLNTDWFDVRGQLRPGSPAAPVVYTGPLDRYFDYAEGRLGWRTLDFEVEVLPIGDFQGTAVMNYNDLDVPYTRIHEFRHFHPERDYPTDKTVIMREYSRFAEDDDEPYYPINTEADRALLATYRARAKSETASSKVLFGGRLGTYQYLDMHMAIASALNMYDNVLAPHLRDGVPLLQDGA
# Beta-lactamase [5] = biological target: Beta-lactamase (Salmonella choleraesuis (strain SC-B67), UniProt Q5J463)
# Keap1/Nrf2 = Keap1/Nrf2 (Homo sapiens, UniProt Q14145); test: disruptors of Keap1 binding to Nrf2 peptide – biochemical, fluorescence polarization, cherry-picked samples, dose response (AID 588683)
# Beta-lactamase [6] = biological target: Beta-lactamase (Pseudomonas aeruginosa, UniProt Q79MP6);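 further: biochemical dose-response test of metallo-beta-lactamase enzyme inhibition, read out by epi-absorbance; purified recombinant IMP-1 metallo-beta-lactamase with nitrocefin as substrate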
# ORF 73 = biological target: T1, ORF 73 (Human herpesvirus 8, UniProt O40947); test: KSHV LANA DNA-binding disruption – biochemical, fluorescence polarization, cherry-picked samples, dose response (AID 504725); parameters: species or system Human gammaherpesvirus 8;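 further: fluorescence polarization of a labeled DNA duplex reporting LANA DNA binding; potency is for inhibitors that block LANA binding to the DNA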
# T1 sequence (O40947 whole entry): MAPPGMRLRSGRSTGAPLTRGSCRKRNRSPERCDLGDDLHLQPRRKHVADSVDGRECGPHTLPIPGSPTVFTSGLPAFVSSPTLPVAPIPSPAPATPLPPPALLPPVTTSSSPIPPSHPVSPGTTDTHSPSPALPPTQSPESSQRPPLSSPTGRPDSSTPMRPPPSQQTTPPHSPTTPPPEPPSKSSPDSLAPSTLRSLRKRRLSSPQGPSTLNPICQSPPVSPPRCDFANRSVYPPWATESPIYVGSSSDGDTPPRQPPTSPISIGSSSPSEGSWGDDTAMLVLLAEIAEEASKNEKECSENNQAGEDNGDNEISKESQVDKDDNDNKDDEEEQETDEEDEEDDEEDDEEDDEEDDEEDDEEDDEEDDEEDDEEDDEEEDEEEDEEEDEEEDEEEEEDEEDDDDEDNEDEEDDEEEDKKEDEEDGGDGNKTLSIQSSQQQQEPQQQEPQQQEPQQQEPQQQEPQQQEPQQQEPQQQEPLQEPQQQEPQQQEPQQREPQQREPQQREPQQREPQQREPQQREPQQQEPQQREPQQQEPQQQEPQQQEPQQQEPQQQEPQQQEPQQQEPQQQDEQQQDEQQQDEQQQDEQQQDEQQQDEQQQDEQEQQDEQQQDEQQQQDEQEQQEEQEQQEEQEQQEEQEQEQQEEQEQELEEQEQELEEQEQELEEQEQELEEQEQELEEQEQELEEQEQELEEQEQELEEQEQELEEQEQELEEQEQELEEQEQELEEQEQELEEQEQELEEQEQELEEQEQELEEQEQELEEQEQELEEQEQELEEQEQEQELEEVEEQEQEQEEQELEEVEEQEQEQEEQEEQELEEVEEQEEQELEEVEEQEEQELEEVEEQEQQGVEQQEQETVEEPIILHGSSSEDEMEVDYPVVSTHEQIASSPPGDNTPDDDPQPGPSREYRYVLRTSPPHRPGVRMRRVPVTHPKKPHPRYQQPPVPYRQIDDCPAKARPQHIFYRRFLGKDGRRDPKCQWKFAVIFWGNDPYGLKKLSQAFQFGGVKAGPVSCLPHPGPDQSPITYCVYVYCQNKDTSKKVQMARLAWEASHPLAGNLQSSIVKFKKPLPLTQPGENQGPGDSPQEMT
# [7] = biological target: NAD-dependent protein deacylase sirtuin-5, mitochondrial (Homo sapiens, UniProt Q9NXA8); test: sirtuin-5 deacylation blockers, concentration series – biochemical, fluorescence imaging, cherry-pick, set 5, dose response (AID 720591);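 further: desuccinylation of succinyl peptide AMC substrate read as fluorescence after trypsin release; potency of inhibitors that lower fluorescence and may act on trypsin instead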
# NAD-dependent protein deacylase sirtuin-5, mitochondrial, sequence (Q9NXA8 whole entry): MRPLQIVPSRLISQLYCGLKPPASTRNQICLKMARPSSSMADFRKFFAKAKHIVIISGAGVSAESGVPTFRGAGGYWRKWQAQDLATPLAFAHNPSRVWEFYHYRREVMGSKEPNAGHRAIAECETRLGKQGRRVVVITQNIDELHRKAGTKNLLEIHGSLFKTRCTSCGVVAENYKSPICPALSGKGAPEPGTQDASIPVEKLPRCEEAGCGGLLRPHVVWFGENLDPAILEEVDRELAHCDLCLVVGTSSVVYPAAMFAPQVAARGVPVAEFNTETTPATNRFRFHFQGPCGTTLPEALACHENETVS
# [8] = biological target: T2, Probable nicotinate-nucleotide adenylyltransferase (Staphylococcus aureus (strain N315), UniProt P65502); format: functional, Staphylococcus aureus subsp. aureus N315; conditions: read-out: IC50_Mean;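 on IC50 Mean: confirmatory dose-response retesting of NadD inhibitor hits first found in an ultra-high-throughput screen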
# T2 sequence (P65502 whole entry): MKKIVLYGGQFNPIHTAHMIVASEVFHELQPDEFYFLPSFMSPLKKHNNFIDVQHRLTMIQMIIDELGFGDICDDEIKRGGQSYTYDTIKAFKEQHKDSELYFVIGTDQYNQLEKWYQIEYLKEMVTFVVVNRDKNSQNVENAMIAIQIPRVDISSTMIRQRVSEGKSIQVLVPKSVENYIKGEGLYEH
# [9] = biological target: T2, Probable nicotinate-nucleotide adenylyltransferase; format: functional, Staphylococcus aureus subsp. aureus N315
# [10] = biological target: T3, Sentrin-specific protease 1 (Homo sapiens, UniProt Q9P0U3); test: SENP1 catalytic domain blockers, concentration series – biochemical, kinetic FRET, dose response (AID 651697); format: functional; conditions: read-out: IC50_Mean
# T3 sequence (Q9P0U3 whole entry, the tested form may be a part): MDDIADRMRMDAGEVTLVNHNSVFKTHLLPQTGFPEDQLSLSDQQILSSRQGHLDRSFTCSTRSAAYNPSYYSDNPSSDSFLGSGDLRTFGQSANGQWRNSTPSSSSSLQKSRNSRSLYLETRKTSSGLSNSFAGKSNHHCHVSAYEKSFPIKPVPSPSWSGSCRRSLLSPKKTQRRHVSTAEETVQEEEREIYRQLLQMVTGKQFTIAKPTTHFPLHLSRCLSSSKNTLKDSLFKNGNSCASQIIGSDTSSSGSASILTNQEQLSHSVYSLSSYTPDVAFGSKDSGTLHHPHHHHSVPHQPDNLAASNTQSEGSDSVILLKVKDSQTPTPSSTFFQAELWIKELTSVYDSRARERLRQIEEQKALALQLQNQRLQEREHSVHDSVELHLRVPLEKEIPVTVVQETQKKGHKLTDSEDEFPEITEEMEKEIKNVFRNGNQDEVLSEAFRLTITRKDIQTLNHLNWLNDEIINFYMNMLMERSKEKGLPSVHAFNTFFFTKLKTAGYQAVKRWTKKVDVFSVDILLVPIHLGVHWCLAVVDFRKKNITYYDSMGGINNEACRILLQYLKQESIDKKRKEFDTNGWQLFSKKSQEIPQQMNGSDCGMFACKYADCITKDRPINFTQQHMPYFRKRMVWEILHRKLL
# [11] = biological target: T3, Sentrin-specific protease 1; test: Dose response confirmation of small molecule inhibitors of the catalytic domain of the SUMO protease, SENP1 in a FRET assay.; format: functional; conditions: read-out: IC50_Mean
# [12] = biological target: Tyrosine-protein phosphatase non-receptor type 5 (Homo sapiens, UniProt P54829); test: PTPN5 enzyme inhibition – biochemical, fluorescence intensity, uHTS hits, confirmation (AID 602372); format: functional; conditions: read-out: IC50_Mean
# Tyrosine-protein phosphatase non-receptor type 5, sequence (P54829 whole entry, the tested form may be a part): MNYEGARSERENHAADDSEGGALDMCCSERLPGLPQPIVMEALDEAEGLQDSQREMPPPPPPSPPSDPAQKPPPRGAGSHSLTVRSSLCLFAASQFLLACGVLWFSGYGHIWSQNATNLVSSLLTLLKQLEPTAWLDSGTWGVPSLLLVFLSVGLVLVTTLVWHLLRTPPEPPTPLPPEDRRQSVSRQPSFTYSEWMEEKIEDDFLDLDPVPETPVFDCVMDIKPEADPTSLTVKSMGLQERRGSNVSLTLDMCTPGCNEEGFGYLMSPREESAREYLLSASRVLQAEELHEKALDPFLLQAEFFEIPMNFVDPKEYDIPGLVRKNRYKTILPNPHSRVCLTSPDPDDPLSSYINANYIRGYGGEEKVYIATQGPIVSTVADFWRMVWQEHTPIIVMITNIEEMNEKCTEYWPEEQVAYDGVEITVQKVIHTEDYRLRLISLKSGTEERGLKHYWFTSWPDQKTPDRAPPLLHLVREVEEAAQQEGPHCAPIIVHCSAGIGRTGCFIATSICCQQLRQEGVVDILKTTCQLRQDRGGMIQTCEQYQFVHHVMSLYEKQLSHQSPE
# [13] = biological target: T4, Carboxy-terminal domain RNA polymerase II polypeptide A small phosphatase 1 (Homo sapiens, UniProt Q9GZU7); test: CTDSP1 inhibitors, concentration-response, biochemical, absorbance readout, ultra-high-throughput screen actives (AID 540297); format: functional
# T4 sequence (Q9GZU7 whole entry): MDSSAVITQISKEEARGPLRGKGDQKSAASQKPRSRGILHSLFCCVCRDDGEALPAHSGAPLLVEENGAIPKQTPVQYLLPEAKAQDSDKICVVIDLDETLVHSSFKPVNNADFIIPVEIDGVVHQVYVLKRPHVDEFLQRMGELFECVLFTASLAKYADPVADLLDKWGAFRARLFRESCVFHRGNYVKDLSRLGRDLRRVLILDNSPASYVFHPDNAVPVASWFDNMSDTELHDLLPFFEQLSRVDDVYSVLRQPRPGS
# [14] = biological target: Tyrosine-protein phosphatase non-receptor type 11 (Homo sapiens, UniProt Q06124); test: PTPN11 enzyme inhibitors – biochemical, selectivity assay for STEP inhibitor project, dose response (AID 602367); format: functional; conditions: read-out: IC50_Mean
# [15] = biological target: Dual specificity protein phosphatase 3 (Homo sapiens, UniProt P51452); test: VHR phosphatase inhibition, dose response, selectivity assay for STEP inhibitor project, biochemical (AID 602374); format: functional; conditions: read-out: IC50_Mean
# Dual specificity protein phosphatase 3, sequence (P51452 whole entry): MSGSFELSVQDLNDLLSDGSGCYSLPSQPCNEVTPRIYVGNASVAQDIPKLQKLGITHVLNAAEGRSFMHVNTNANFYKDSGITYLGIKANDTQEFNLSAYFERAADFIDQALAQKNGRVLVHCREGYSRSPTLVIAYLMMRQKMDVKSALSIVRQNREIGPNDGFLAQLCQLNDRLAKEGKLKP
# [16] = system: Streptococcus sp. 'group A'; test: Streptococcus pyogenes SK(-)GAS viability under kanamycin – luminescence, BacTiterGlo, confirmation, counter-screen for streptokinase expression inhibitor project, dose response (AID 1900); format: functional, organism-based
# [17] = NIH3T3 cell viability loss – ATP luminescence, mouse fibroblasts, counter-screen, dose response (AID 2010); format: functional, cell-based;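 further: cells exposed to compound for about 90 hours before reading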
# Streptokinase A = biological target: T5, Streptokinase A (Streptococcus pyogenes serotype M1, UniProt P10520); test: viability-normalized secreted streptokinase activity reduction – plasminogen activation absorbance, OD405, dose response (AID 1914); format: functional, Streptococcus pyogenes M1 GAS;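 further: secreted streptokinase activity via plasminogen activation per viability signal from cell pellet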
# T5 sequence (P10520 whole entry): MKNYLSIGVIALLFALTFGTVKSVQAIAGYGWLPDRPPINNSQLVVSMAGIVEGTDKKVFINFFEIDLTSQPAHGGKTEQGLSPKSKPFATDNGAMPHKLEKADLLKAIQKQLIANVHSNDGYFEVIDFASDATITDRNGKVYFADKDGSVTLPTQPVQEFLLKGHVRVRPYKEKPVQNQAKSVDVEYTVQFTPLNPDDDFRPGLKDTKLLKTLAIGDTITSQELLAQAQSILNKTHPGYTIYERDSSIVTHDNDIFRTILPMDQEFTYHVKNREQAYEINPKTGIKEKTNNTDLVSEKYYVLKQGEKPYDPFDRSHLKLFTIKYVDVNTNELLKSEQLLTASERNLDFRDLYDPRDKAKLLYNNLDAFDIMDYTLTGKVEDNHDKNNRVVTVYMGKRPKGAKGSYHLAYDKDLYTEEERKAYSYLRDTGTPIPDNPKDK
# HEK293 = test: EBV LMP1 TES2 canonical NF-kB signalling blockers – cell-based, HEK293, luciferase, cherry-pick, dose response (AID 588343); format: functional; conditions: Homo sapiens
# Streptococcus = test: GAS UMAA2166 growth inhibition – luminescence, BacTiterGlo, counter-screen for streptokinase expression inhibitor project, dose response (AID 1915); format: functional, organism-based;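 further: potency for reduction of bacterial viability or growth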
# [18] = Trypanosoma cruzi growth suppression in host cells – NIH3T3 host cells, beta-gal luminescence, confirmation (AID 2044); format: functional, cell-based;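 further: intracellular parasites grown in NIH/3T3 mouse fibroblasts as host cells; luminescent beta-galactosidase reporter signal from transgenic T. cruzi replicating inside host cells; inhibitors lower the luminescence signal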
# [19] = biological target: Latent membrane protein 1 (Human herpesvirus 4 (strain B95-8), UniProt P03230); test: LMP1 TES1 pathway selectivity over dsRED control – imaging, HEK293T, dual-color eGFP/dsRED, cherry-picks, selectivity assay for LMP1 NF-kB inhibitor project, dose response (AID 588398); format: functional, cell-based
# [20] = biological target: T6, Apoptotic protease-activating factor 1 (Homo sapiens, UniProt O14727); test: SAR analysis of small molecule Activators of Apaf-1 in a Fluorescent assay.; format: functional; conditions: read-out: EC50_Mean;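 further: caspase-3 cleavage of fluorogenic Rh110 DEVD substrate downstream of apoptosome activation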
# T6 sequence (O14727 whole entry): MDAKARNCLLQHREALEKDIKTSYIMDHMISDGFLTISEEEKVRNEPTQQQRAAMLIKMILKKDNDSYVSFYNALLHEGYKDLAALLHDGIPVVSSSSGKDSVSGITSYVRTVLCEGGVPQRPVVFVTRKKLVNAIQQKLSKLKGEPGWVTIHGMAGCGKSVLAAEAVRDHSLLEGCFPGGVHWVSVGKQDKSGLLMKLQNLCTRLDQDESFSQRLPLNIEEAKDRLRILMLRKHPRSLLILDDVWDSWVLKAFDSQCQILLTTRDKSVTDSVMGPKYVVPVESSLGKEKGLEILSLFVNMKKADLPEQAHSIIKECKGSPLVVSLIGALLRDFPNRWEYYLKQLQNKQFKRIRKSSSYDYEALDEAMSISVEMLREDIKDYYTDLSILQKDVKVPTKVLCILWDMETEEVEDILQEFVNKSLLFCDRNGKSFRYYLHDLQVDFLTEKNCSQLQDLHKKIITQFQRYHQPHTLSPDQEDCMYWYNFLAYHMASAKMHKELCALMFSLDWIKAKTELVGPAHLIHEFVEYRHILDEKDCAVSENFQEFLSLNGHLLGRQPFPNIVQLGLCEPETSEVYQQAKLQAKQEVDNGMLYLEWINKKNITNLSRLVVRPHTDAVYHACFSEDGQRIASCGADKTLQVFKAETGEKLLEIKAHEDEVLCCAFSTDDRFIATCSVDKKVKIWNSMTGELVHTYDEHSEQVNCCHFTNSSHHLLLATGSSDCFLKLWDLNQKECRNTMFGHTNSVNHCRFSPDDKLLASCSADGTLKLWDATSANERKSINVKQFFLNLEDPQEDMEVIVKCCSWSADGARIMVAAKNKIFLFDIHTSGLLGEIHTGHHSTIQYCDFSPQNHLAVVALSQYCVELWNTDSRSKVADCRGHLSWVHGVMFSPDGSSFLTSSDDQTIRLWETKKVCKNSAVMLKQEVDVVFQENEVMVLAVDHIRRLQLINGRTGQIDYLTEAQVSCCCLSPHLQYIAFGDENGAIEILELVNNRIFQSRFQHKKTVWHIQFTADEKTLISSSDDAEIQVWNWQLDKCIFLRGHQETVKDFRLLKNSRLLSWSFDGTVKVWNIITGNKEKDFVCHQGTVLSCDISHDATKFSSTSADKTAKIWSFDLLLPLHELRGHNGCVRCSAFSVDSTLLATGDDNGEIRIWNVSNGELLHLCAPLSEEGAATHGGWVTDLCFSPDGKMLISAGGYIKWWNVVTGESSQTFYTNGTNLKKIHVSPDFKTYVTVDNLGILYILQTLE
# [21] = biological target: High affinity nerve growth factor receptor (Homo sapiens, UniProt P04629); format: functional;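 further: NTRK1 tested as one member of a kinome-wide profiling panel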
# High affinity nerve growth factor receptor, sequence (P04629 whole entry): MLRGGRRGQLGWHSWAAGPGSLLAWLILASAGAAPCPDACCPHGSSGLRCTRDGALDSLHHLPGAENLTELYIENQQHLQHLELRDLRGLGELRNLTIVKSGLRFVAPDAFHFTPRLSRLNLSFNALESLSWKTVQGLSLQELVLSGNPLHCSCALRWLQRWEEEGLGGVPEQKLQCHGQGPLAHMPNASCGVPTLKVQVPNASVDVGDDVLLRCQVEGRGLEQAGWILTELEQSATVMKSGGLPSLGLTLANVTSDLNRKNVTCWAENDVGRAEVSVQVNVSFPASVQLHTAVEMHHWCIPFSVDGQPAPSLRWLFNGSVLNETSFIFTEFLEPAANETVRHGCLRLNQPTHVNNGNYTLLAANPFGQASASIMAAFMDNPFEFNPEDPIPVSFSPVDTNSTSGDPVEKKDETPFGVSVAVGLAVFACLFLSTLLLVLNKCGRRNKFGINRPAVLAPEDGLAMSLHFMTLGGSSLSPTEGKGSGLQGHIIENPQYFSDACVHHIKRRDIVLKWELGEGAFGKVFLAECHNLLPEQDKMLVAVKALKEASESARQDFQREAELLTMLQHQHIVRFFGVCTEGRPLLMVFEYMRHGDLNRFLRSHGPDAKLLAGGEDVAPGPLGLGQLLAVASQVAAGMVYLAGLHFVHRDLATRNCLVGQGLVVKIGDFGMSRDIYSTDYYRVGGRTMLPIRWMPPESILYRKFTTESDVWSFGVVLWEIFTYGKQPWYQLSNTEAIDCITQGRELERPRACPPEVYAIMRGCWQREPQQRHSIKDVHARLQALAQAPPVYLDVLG
# [22] = biological target: Cell division cycle 7-related protein kinase (Homo sapiens, UniProt O00311); format: functional;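 further: value obtained from a kinome-wide kinase panel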
# Cell division cycle 7-related protein kinase, sequence (O00311 whole entry): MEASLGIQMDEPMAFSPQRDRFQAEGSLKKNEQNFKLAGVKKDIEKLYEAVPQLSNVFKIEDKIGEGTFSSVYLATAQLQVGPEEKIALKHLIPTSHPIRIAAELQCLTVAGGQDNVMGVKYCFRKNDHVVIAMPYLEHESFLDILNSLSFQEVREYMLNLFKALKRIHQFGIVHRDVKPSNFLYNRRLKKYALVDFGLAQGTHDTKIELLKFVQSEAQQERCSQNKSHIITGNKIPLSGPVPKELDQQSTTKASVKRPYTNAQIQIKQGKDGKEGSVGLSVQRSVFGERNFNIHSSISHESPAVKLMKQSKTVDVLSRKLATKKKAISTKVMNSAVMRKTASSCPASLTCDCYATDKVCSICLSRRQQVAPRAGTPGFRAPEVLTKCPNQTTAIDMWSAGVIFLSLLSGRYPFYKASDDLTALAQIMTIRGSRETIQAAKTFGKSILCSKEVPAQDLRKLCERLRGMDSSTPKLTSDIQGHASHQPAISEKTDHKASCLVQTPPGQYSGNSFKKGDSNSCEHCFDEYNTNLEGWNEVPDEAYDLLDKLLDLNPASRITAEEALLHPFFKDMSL
# [23] = biological target: Glycogen synthase kinase-3 alpha (Homo sapiens, UniProt P49840); format: functional;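 further: GSK3A result taken from a broad kinome-wide kinase panel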
# Glycogen synthase kinase-3 alpha, sequence (P49840 whole entry): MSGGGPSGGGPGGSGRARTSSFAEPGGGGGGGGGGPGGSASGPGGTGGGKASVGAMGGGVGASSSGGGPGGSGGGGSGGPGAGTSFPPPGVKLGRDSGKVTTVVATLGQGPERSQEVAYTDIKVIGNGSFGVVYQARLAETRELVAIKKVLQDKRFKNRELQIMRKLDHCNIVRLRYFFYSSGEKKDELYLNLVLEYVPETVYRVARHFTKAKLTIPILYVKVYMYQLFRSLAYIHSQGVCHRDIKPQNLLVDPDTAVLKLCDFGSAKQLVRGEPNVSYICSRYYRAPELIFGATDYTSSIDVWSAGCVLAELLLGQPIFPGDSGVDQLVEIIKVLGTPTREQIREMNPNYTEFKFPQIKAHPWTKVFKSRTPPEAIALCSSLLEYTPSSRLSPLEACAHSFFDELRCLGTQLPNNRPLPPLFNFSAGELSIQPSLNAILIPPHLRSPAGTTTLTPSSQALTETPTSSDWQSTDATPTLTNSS
# [24] = biological target: Glycogen synthase kinase-3 beta (Homo sapiens, UniProt P49841); format: functional;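 further: value comes from a broad kinome profiling panel, with GSK3B as the panel member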
# [25] = biological target: Serine/threonine-protein kinase MRCK alpha (Homo sapiens, UniProt Q5VT25); format: functional
# [26] = activation of miR-122 Renilla sensor silencing – cell-based, Huh7 psiCHECK-miR122, Renilla luciferase, cherry-picked, dose response (AID 651956); format: functional;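 further: huh7 hepatoma cells stably carrying a psiCHECK-2 miR-122 sensor plasmid; renilla luciferase signal reporting endogenous miR-122 activity after 48 h compound exposure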
# Potassium voltage-gated channel subfamily KQT member 2, sequence (O88943 whole entry, the tested form may be a part): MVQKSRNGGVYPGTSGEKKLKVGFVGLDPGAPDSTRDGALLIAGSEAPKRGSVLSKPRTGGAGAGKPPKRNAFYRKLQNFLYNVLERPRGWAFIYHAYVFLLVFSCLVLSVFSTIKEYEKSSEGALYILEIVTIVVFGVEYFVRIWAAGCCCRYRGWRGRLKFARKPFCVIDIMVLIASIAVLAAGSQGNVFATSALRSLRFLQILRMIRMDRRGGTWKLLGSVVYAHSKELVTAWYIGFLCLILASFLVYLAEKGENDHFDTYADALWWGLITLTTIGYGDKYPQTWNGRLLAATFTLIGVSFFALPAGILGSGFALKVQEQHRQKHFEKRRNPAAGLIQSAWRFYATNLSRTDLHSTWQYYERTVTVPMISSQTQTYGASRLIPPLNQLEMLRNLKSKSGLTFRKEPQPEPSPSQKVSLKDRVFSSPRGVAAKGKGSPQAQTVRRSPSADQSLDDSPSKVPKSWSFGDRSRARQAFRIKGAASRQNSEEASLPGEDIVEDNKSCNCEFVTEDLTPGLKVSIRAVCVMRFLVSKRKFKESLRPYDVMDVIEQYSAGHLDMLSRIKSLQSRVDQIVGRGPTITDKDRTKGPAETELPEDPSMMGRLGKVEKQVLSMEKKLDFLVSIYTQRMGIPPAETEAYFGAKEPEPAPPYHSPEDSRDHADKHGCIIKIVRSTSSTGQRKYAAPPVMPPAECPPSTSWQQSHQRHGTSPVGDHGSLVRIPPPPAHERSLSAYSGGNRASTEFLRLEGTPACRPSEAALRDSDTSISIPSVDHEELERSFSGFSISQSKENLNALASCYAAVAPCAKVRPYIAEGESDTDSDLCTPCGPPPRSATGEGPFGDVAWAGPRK
smiles,measurement,setting,value
Cc1csc2nc(CSc3ccc(Cl)cc3)cn12,IC50,[1],4.2 µM (active)
O=C1c2cccnc2C(=O)N1Cc1ccc(S(=O)(=O)NCc2ccco2)s1,AC50,[2],98.4 µM (active)
COc1cc(/C=C/C(=O)c2ccc(Cl)s2)cc(OC)c1O,IC50,[3],6.66 µM (active)
Cc1cccc(N2C(=O)c3cccc4c(N)ccc(c34)C2=O)c1,AC50,[4],1.79 µM (active)
same,IC50,Beta-lactamase [5],10.1 µM (inactive)
same,AC50,Keap1/Nrf2,1.82 µM (active)
same,IC50,Beta-lactamase [6],21.4 µM (inactive)
same,AC50,ORF 73,5.93 µM (active)
CCOC(=O)c1ccccc1NC(=O)c1ccc2c(SCC(=O)O)c3c(nc2c1)CCCC3,AC50,[7],> 30 µM (inactive)
same,IC50,[8],25 µM (active)
same,IC50,[9],5.7 µM (active)
O=C1CC[C@@H]2C[C@@]3(C[C@@H]4CCN1[C@H]24)Nc1cc([N+](=O)[O-])ccc1N=C3NCc1ccccc1,IC50,[10],18.3 µM (active)
same,IC50,[11],9.31 µM (active)
Cc1c(CC(=O)O)c(=O)oc2c(C)c(OCc3ccccc3Br)ccc12,IC50,[12],13.4 µM (active)
same,IC50,[13],3.92 µM (active)
same,IC50,[14],7.43 µM (active)
same,IC50,[15],6.67 µM (active)
CCCc1ccc(-c2cc(C(=O)N/N=C/c3ccc([N+](=O)[O-])o3)c3ccccc3n2)cc1,EC50,[16],2.75 µM (active)
same,EC50,[17],8.91 µM (active)
same,EC50,Streptokinase A,> 150 µM (not active)
same,AC50,HEK293,2.89 µM (active)
same,EC50,Streptococcus,2.59 µM (active)
same,EC50,[18],0.194 µM (active)
same,AC50,[19],112 µM (active)
COC(=O)[C@@H]1COC(c2ccc(OC)c(C(F)(F)F)c2)=N1,EC50,[20],> 100 µM (inactive)
NC(=O)c1ccc(-c2c[nH]c3nc(N)nc(NCc4c(F)cccc4F)c23)cc1,Ki,[21],2.51 µM (active)
same,Ki,[22],0.1 µM (active)
CC(=O)Nc1nonc1-n1nnc(C(=O)NN=Cc2cccs2)c1-c1ccccc1,Ki,[23],3.16 µM (active)
same,Ki,[24],6.31 µM (active)
same,Ki,[25],10 µM (active)
CN1C(=O)c2cc(NC(=O)c3cccs3)ccc2OC[C@H]2O[C@H](CC(=O)NCCN3CCCCC3)CC[C@@H]21,AC50,[26],43.3 µM (active)
